Measured values from patent US20170247393A1, “Aminoisoxazoline Compounds as Agonists of Alpha7-Nicotinic Acetylcholine Receptors” (Forum Pharmaceuticals, Inc., priority 2015, published 2017).
Counter-ions that a name gives are not always drawn.

What follows are molecules tested against T1, human 5-HT3 serotonin receptors (Homo sapiens, UniProt P46098) (assay: biochemical). Settings: not given.
T1 sequence (P46098 24-478): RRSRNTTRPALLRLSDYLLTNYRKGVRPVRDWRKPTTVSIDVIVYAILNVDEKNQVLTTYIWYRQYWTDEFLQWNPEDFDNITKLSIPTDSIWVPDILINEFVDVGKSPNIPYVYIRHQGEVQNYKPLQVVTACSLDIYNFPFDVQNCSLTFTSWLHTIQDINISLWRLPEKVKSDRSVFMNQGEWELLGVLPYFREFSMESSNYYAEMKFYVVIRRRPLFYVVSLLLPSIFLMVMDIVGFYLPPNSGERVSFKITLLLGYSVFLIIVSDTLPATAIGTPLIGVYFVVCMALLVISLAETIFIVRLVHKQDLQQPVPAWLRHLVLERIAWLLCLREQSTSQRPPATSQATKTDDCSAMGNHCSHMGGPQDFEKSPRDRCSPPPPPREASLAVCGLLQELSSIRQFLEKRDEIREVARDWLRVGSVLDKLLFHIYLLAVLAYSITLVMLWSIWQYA
Format: binding
Clc1cc2cnc(NC3=NO[C@@]4(C3)CN3CCC4CC3)cc2cc1Cl [(R)-62, (R)—N-(6,7-dichloroisoquinolin-3-yl)-4H-1′-azaspiro[isoxazole-5,3′-bicyclo[2.2.2]octan]-3-amine trifluoroacetate] showed a Ki of over 10 µM.
Molecule Clc1coc2cc(NC3=NO[C@@]4(C3)CN3CCC4CC3)ccc12 [(R)-73-1, (R)—N-(3-chlorobenzofuran-6-yl)-4H-1′-azaspiro[isoxazole-5,3′-bicyclo[2.2.2]octan]-3-amine hydrochloride] has a Ki of 4.9 µM.
Molecule Cc1cn2ccc(NC3=NO[C@@]4(C3)CN3CCC4CC3)cc2n1 [(R)-96, (R)-N-(2-methylimidazo[1,2-a]pyridin-7-yl)-4H-1′-azaspiro[isoxazole-5,3′-bicyclo[2.2.2]octan]-3-amine hydrochloride] has a Ki of over 10 µM.

Same assay, conditions: CHO cell membranes expressing human 5-HT3 receptors, [3H]BRL 43694, 120 min at room temperature; read-out: h-5HT3 Ki
Cc1cc2cnc(NC3=NO[C@@]4(C3)CN3CCC4CC3)nc2s1 [(R)-52, (R)—N-(6-methylthieno[2,3-d]pyrimidin-2-yl)-4H-1′-azaspiro[isoxazole-5,3′-bicyclo[2.2.2]octan]-3-amine hydrochloride] showed a Ki of over 10 µM.
In the case of Cc1cc2ccc(NC3=NO[C@@]4(C3)CN3CCC4CC3)nc2s1 [(R)-53, (R)—N-(2-methylthieno[2,3-b]pyridin-6-yl)-4H-1′-azaspiro[isoxazole-5,3′-bicyclo[2.2.2]octan]-3-amine hydrochloride], the Ki is reported as over 10 µM.
Work on Clc1cc2ccc(NC3=NO[C@@]4(C3)CN3CCC4CC3)cc2s1 [(R)-54, (R)—N-(2-chlorobenzo[b]thiophen-6-yl)-4H-F-azaspiroksoxazole-5,3^1-bicyclo[2.2.2]octan1-3-amine hydrochloride] yielded a Ki of over 10 µM.
In the case of Fc1sc2cc(NC3=NO[C@@]4(C3)CN3CCC4CC3)ccc2c1F [(R)-55, hydrochloride], the Ki is reported as 2.2 µM.
For Cc1csc2cc(NC3=NO[C@@]4(C3)CN3CCC4CC3)ccc12 [(R)-56, (R)—N -(3-methylbenzo[b]thiophen-6-yl)-4H-1′-azaspiro[isoxazole-5,3′-bicyclo[2.2.2]octan]-3-amine hydrochloride], the Ki was over 10 µM.
Work on Cc1ccc2cc(NC3=NO[C@@]4(C3)CN3CCC4CC3)ncc2c1 [(R)-59, (R)—N-(7-methylisoquinolin-3-yl)-4H-1′-azaspiro[isoxazole-5,3′-bicyclo[2.2.2]octan]-3-amine hydrochloride] yielded a Ki of over 10 µM.
With Cc1ccc2cnc(NC3=NO[C@@]4(C3)CN3CCC4CC3)cc2c1 [(R)-60, (R)—N-(6-methylisoquinolin-3-yl)-4H-1′-azaspiro[isoxazole-5,3′-bicyclo[2.2.2]octan]-3-amine hydrochloride] the Ki was over 10 µM.
In the case of Fc1cc2cnc(NC3=NO[C@@]4(C3)CN3CCC4CC3)cc2cc1F [(R)-61, (R)—N-(6,7-difluoroisoquinolin-3-yl)-4H-1′-azaspiro[isoxazole-5,3′-bicyclo[2.2.2]octan]-3-amine hydrochloride], the Ki is reported as over 10 µM.
For Clc1cc2ccc(NC3=NO[C@@]4(C3)CN3CCC4CC3)cc2o1 [(R)-63, (R)—N-(2-chlorobenzofuran-6-yl)-4H-1′-azaspiro[isoxazole-5,3′-bicyclo[2.2.2]octan]-3-amine hydrochloride], the Ki was over 10 µM.
Work on Cn1ncc2ccc(NC3=NO[C@@]4(C3)CN3CCC4CC3)cc21 [(R)-64, (R)—N-(1-methyl-1H-indazol-6-yl)-4H-1′-azaspiro[isoxazole-5,3′-bicyclo[2.2.2]octan]-3-amine hydrochloride] yielded a Ki of over 10 µM.
Cn1ncc2cc(NC3=NO[C@@]4(C3)CN3CCC4CC3)ccc21 [(R)-65, (R)—N-(1-methyl-1H-indazol-5-yl)-4H-1′-azaspiro[isoxazole-5,3′-bicyclo[2.2.2]octan]-3-amine hydrochloride] was tested, and the Ki was over 10 µM.
Cc1noc2cc(NC3=NO[C@@]4(C3)CN3CCC4CC3)ccc12 [(R)-66, (R)—N -(3-methylbenzo[d]isoxazol-6-yl)-4H-1′-azaspiro[isoxazole-5,3′-bicyclo[2.2.2]octan]-3-amine hydrochloride] was tested, and the Ki was 4.5 µM.
In the case of FC(F)(F)c1cc2ccc(NC3=NO[C@@]4(C3)CN3CCC4CC3)cc2s1 [(R)-67, (R)—N-(2-(trifluoromethyl)benzo[b]thiophen-6-yl)-4H-1′-azaspiro[isoxazole-5,3′-bicyclo[2.2.2]octan]-3-amine hydrochloride], the Ki is reported as over 10 µM.
In the case of Cc1ccc2nc(NC3=NO[C@@]4(C3)CN3CCC4CC3)ncc2c1 [(R)-70, (R)—N-(6-methylquinazolin-2-yl)spiro[4H-isoxazole-5,3^1-quinuclidine]-3-amine], the Ki is reported as over 10 µM.
For Cc1ccc2cnc(NC3=NO[C@@]4(C3)CN3CCC4CC3)nc2c1 [(R)-71, (R)—N-(7-methylquinazolin-2-yl)-4H-1′-azaspiro[isoxazole-5,3′-bicyclo[2.2.2]octan]-3-amine hydrochloride], the Ki was 6.4 µM.
Cc1nsc2cc(NC3=NO[C@@]4(C3)CN3CCC4CC3)ccc12 [(R)-72, (R)—N-(3-methylbenzo[d]isothiazol-6-yl)-4H-1′-azaspiro[isoxazole-5,3′-bicyclo[2.2.2]octan]-3-amine hydrochloride] was tested, and the Ki was over 10 µM.
Cc1coc2cc(NC3=NO[C@@]4(C3)CN3CCC4CC3)ccc12 [(R)-74, (R)—N-(3-methylbenzofuran-6-yl)-4H-1′-azaspiro[isoxazole-5,3′-bicyclo[2.2.2]octan]-3-amine hydrochloride] showed a Ki of over 10 µM.
In the case of Cc1cc2cnc(NC3=NO[C@@]4(C3)CN3CCC4CC3)nc2o1 [(R)-75, (R)—N-(6-methylfuro[2,3-d]pyrimidin-2-yl)spiro[4H-isoxazole-5,3′-quinuclidine]-3-amine hydrochloride], the Ki is reported as over 10 µM.
Clc1csc2cc(NC3=NO[C@@]4(C3)CN3CCC4CC3)ccc12 [(R)-76, (R)—N -(3-chlorobenzo[b]thiophen-6-yl)-4H-1′-azaspiro[isoxazole-5,3′-bicyclo[2.2.2]octan]-3-amine hydrochloride] was tested, and the Ki was 2.8 µM.
For Fc1c(Cl)sc2cc(NC3=NO[C@@]4(C3)CN3CCC4CC3)ccc12 [(R)-78, (R)—N-(2-chloro-3-fluorobenzo[b]thiophen-6-yl)-4H-1′-azaspiro[isoxazole-5,3′-bicyclo[2.2.2]octan]-3-amine hydrochloride], the Ki was over 10 µM.
c1cnc2ccc(NC3=NO[C@@]4(C3)CN3CCC4CC3)cc2c1 [(R)-80, (R)—N-(quinolin-6-yl)-41-1-1^1-azaspiro[isoxazole-5,3′-bicyclo[2.2.2]octan]-3-amine hydrochloride] was tested, and the Ki was over 10 µM.
Fc1cc2cnc(NC3=NO[C@@]4(C3)CN3CCC4CC3)cc2cc1Cl [(R)-81, (R)—N-(6-chloro-7-fluoroisoquinolin-3-yl)-4H-1′-azaspiro[isoxazole-5,3^1-bicyclo[2.2.2]octan]-3-amine hydrochloride] gave a Ki of over 10 µM.
Fc1cc2cc(NC3=NO[C@@]4(C3)CN3CCC4CC3)ncc2cc1Cl [(R)-82, (R)—N-(7-chloro-6-fluoroisoquinolin-3-yl)-4H-1′-azaspiro[isoxazole-5,3′-bicyclo[2.2.2]octan]-3-amine hydrochloride] was tested, and the Ki was over 10 µM.
FC(F)(F)c1ccc2cnc(NC3=NO[C@@]4(C3)CN3CCC4CC3)cc2c1 [(R)-83, (R)—N-(6-(trifluoromethypisoquinolin-3-yl)-4H-1′-azaspiro[isoxazole-5,3′-bicyclo[2.2.2]octan]-3-amine hydrochloride] gave a Ki of over 10 µM.

Same assay, conditions: read-out: h-5HT3 Ki
Molecule c1cnc2cc(NC3=NO[C@@]4(C3)CN3CCC4CC3)ccc2c1 [(R)-79, (R)—N-(quinolin-7-yl)-4H-1′-azaspiro[isoxazole-5,3′-bicyclo[2.2.2]octan]-3-amine hydrochloride] has a Ki of 5.6 µM.
